Biological target: T1, human IDO1 protein (Homo sapiens, UniProt P14902)
T1 construct: purchased ChemPartner Lot; No. 20160706
Assay: Enzymatic IDO1 assay (Absorbance 321 assay)
Format: biochemical
Settings: for Avg_Inh (%) @ 50uM: average inhibition, Table S2; for Background (%): background signal of the compound in the absorbance assay
Description: The standard assay mixture contained modified potassium phosphate buffer at pH 6.5, 100 μM L-tryptophan (Sigma, Cat. […] No. […]). […] Then the assay plate was read at OD321 kinetically in Spectramax. […] Fit the data in […]5.0 software to obtain IC50-values using Equation (2): (2) Y=Bottom+Top-Bottom/1+10^(logIC50-X)×HillSlope where Y stands for inhibition percentage and X stands for compound concentration. All determinations were carried out in duplicate.

T1 sequence (P14902 whole entry): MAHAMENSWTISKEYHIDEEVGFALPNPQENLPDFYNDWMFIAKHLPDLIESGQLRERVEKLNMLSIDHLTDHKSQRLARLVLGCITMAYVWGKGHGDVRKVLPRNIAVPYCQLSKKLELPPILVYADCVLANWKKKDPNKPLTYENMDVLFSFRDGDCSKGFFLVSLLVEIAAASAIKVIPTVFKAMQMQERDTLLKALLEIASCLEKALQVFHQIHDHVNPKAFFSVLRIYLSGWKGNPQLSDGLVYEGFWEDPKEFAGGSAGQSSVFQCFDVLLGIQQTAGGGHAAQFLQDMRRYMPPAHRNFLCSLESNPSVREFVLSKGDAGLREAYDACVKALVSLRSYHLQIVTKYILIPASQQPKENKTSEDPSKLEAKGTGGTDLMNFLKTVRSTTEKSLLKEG

| SMILES | Avg_Inh (%) @ 50uM [%] | Background (%) |
| --- | --- | --- |
| CCCc1[nH]nc2c1C(c1cccc(O)c1)C(C#N)=C(N)O2 (stereo not shown) [DCI-043] | 1.84 | 30.60 |
| CCOc1nccc2sc3ccccc3c12 [DCI-044] | 44.52 | 40.43 |
| Cc1c(-c2ccccc2)nc(-c2ccccc2)[nH]c1=O [DCI-045] | 11.41 | 39.40 |
| O=c1cc(NCCN2CCCC2)c2ccccc2o1 [DCI-047] | -3.88 | 42.54 |
| COc1ccc(-c2nc(=O)cc(-c3ccccc3)o2)cc1 [DCI-048] | 7.58 | 71.51 |
| CC(Oc1ccccc1)C(=O)N1CCc2ccccc21 (stereo not shown) [DCI-049] | 1.65 | 31.42 |
| O=C(Nc1ccccc1OCC1CCCO1)NC1CCCCC1 (stereo not shown) [DCI-050] | 0.29 | 31.57 |
| CC(O)Cn1c(=O)c(=O)[nH]c2ccccc21 (stereo not shown) [DCI-051] | 6.69 | 57.46 |
| Oc1cccc(C(O)CNCc2c(Cl)cccc2Cl)c1 (stereo not shown) [DCI-052] | 3.32 | 31.34 |
| CC(=O)c1[nH]c2ccccc2c1C(C)=O [DCI-053] | 3.68 | 43.33 |
| O=C1c2ccccc2C(=O)N1CNCc1cc(=O)[nH]c(=O)[nH]1 [DCI-054] | 4.51 | 48.55 |
| COc1ccc2oc(C(O)c3c(C)oc4ccc(OC)cc34)cc2c1 (stereo not shown) [DCI-056] | 55.55 | 43.42 |
| Cc1oc2ccc(O)cc2c1C(=O)c1ccc(Br)cc1 [DCI-057] | 67.78 | 57.09 |
| O=C1c2ccccc2NC(c2cccc([N+](=O)[O-])c2)N1O (stereo not shown) [DCI-058] | 4.69 | 37.75 |
| COc1ccc(C(=O)c2c[nH]cc2-c2ccccc2)cc1 [DCI-059] | 17.41 | 49.85 |
| Cc1cc(C)c2c(=O)cc(C(=O)Nc3cc(-c4ccc(F)cc4)no3)oc2c1 [DCI-060] | 79.74 | 59.25 |
| O=C(CSc1ncnc2sc3c(c12)CCC3)Nc1ccccc1 [DCI-061] | 63.45 | 54.35 |
| c1ccc2c3c(c(CN4CCCCC4)cc2c1)COC3 [DCI-062] | 8.78 | 33.45 |
| Cc1nn(C)cc1CN(C)C(=O)c1cc2ccccc2oc1=O [DCI-063] | 2.41 | 54.16 |
| O=C1NN(c2ncnc3sc4c(c23)CCCC4)C(=O)c2cccc3cccc1c23 [DCI-064] | 6.57 | 36.33 |
| Cc1nc2ccccc2cc1C(=O)N/N=C/c1cccc(Cl)c1 [DCI-065] | 26.49 | 68.09 |
| Cn1c(=O)c([N+](=O)[O-])c(Nc2ccc(Cl)cc2)c2ccccc21 [DCI-066] | 24.55 | 53.30 |
| Cc1onc(-c2ccccc2Cl)c1C(=O)Nc1cccc([N+](=O)[O-])c1 [DCI-067] | 28.06 | 37.16 |
| CCn1c(SCC(=O)Nc2ccccc2[N+](=O)[O-])nnc1-c1ccc(O)cc1 [DCI-068] | 5.69 | 35.54 |
| Cc1ccc(C2C(C#N)=C(N)Oc3ccc4ccc(O)cc4c32)cc1 (stereo not shown) [DCI-069] | 79.20 | 42.53 |
| COc1cc(C)c(Cl)cc1S(=O)(=O)Nc1cccc(C)c1C [DCI-070] | 46.52 | 35.28 |
| CC(C)(C)NC(=O)Cc1coc2ccc3ccccc3c12 [DCI-071] | 22.41 | 39.05 |
| O=[N+]([O-])c1ccccc1Sc1c(O)ccc2ccccc12 [DCI-072] | 74.65 | 49.90 |
| O=c1/c(=C/c2c(O)ccc3ccccc23)sc2n1CCCN=2 [DCI-073] | 64.05 | 54.63 |
